Active and inactive are the calls of the source.
Tests used:
Format in all cases: functional, cell-based
RAW264.7 [1] = experiment: Antiinflammatory activity against mouse RAW264.7 cells assessed as inhibition of LPS induced IL-6 release 10 uM preincubated for 2 hrs followed by LPS challenge measured after 24 hrs by sandwich ELISA
RAW264.7 [2] = experiment: Antiinflammatory activity against mouse RAW264.7 cells assessed as inhibition of LPS induced TNFalpha release preincubated for 2 hrs followed by LPS challenge measured after 24 hrs by sandwich ELISA
RAW264.7 [3] = experiment: Antiinflammatory activity against mouse RAW264.7 cells assessed as inhibition of LPS induced cox-2 expression at 10 uM preincubated for 2 hrs followed by LPS challenge measured after 24 hrs by Western blot method
RAW264.7 [4] = experiment: Antiinflammatory activity against mouse RAW264.7 cells assessed as inhibition of LPS induced iNOS expression at 10 uM preincubated for 2 hrs followed by LPS challenge measured after 24 hrs by Western blot method
RAW264.7 [5] = experiment: Antiinflammatory activity against mouse RAW264.7 cells assessed as inhibition of LPS induced cox-2 expression at 20 uM preincubated for 2 hrs followed by LPS challenge measured after 24 hrs by Western blot method
RAW264.7 [6] = experiment: Antiinflammatory activity against mouse RAW264.7 cells assessed as inhibition of LPS induced iNOS expression at 20 uM preincubated for 2 hrs followed by LPS challenge measured after 24 hrs by Western blot method

Measured: Activity

CC(C)=CCC[C@@](C)(O)[C@H]1CC[C@]2(C)[C@@H]1[C@H](O)C[C@@H]1[C@@]3(C)CCC(=O)C(C)(C)[C@@H]3[C@@H](O[C@@H]3O[C@H](CO)[C@@H](O)[C@H](O)[C@H]3O)C[C@]12C
active: RAW264.7 [1] | RAW264.7 [2] Dose-dependent effect | RAW264.7 [3] | RAW264.7 [4]

Cc1ccc(-c2cc(C(F)(F)F)nn2-c2ccc(S(N)(=O)=O)cc2)cc1
active: RAW264.7 [5] | RAW264.7 [6]

From ChEMBL document CHEMBL4177659, “Two new dammarane-type triterpene saponins from Korean red ginseng and their anti-inflammatory effects” (Bioorg Med Chem Lett, 2017)
